Measurements: patent publication US10870647B2, “Imidazopyridine derivative, method for preparing same, and pharmaceutical composition containing same as active ingredient for preventing or treating cancer” (DAEGU-GYEONGBUK MEDICAL INNOVATION FOUNDATION, priority 2016, dated 2020)

Columns and labels:
[1] = target: T1, scanMAX Kinase assay panel (Homo sapiens, UniProt O95382); assay: Kinase selectivity, scanMAX Kinase assay panel (DiscoverX), % control at 1 uM; format: binding; conditions: ASK2; 1 uM; read-out: Percent Control (%)
T1 construct: purchased DiscoverX
T1 sequence (O95382 1-1288): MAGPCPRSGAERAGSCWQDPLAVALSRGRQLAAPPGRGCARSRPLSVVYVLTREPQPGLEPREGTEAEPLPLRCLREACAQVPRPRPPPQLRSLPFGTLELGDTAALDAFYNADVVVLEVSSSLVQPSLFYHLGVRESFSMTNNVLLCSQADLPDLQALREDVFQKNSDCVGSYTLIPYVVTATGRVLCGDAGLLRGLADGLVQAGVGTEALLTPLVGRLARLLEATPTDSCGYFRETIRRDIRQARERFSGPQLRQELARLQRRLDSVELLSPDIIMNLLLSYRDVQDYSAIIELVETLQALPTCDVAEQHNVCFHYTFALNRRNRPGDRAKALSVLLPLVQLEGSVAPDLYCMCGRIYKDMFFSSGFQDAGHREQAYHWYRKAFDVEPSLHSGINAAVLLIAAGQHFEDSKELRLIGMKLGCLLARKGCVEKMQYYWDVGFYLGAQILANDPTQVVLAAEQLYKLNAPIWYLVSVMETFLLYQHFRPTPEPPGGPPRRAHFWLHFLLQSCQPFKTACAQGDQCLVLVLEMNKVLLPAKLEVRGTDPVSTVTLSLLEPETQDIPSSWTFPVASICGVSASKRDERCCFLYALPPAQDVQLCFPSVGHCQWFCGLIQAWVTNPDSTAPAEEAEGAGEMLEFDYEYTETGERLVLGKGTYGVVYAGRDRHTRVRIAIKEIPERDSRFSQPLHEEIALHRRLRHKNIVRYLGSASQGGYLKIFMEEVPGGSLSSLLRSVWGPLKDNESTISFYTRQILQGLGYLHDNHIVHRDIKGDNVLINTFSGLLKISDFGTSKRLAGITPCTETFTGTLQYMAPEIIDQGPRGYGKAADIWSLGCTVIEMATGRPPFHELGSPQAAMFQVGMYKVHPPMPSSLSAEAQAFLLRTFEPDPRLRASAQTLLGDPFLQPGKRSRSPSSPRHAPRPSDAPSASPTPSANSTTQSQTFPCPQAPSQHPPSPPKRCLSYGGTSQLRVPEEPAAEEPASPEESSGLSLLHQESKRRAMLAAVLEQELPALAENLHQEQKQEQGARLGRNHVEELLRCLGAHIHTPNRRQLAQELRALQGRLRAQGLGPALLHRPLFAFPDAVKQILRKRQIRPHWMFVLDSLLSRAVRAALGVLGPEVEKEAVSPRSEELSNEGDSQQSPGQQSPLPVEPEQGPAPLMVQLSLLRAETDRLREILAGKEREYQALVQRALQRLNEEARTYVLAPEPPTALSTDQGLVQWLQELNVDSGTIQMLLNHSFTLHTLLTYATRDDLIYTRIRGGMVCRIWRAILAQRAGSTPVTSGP
In short: (§1)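 Binding across the scanMAX kinase panel was tested at 1 uM compound. % control = (compound − positive control)/(negative control − positive control) × 100; below 35 counted as active.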

[2] = target: T2, scanMAX Kinase assay panel (Homo sapiens, UniProt O94768); assay: as above; format: binding; conditions: DRAK2; 1 uM; read-out: Percent Control (%)
T2 construct: purchased DiscoverX
T2 sequence (O94768 1-372): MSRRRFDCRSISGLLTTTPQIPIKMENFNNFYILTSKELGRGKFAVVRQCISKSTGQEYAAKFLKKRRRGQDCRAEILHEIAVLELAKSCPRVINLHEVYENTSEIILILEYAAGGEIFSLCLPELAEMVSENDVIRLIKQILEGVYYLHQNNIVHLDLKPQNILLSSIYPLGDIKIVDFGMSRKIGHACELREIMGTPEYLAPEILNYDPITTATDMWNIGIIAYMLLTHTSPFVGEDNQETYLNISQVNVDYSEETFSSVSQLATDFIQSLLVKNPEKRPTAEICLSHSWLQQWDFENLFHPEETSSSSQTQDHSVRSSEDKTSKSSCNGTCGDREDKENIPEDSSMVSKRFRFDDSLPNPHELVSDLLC
In short: as §1

SMILES | remaining binding at 1 µM [1] | remaining binding at 1 µM [2]
Cc1ccc(NC(=O)C2(C(=O)Nc3ccc(F)cc3)CC2)cc1C#Cc1cnc2c(Nc3cnn(C(C)C)c3)cccn12 [Example 78] | 100% | 100%
Cc1cn(-c2cc(NC(=O)c3ccc(C)c(C#Cc4cnc5c(Nc6cnn(C)c6)cccn45)c3)cc(C(F)(F)F)c2)cn1 [Example 12, 4-methyl-N-(3-(4-methyl-1H-imidazol-1-yl)-5-(trifluoromethyl)phenyl)-3-((8-((1-methyl-1H-pyrazol-4-yl)amino)imidazo[1,2-a]pyridin-3-yl)ethynyl)benzamide] | 81% | 95%
Cc1ccc(C(=O)Nc2ccc(CN3CCN(C)CC3)c(C(F)(F)F)c2)cc1C#Cc1cnc2c(Nc3cnn(C)c3)cccn12 [Example 1, 4-methyl-3-((8-((1-methyl-1H-pyrazol-4-yl)amino)imidazo[1,2-a]pyridin-3-yl)ethynyl)-N-(4-((4-methylpiperazin-1-yl)methyl)-3-(trifluoromethyl)phenyl)benzamide] | 71% | 90%
